Reference: ChEMBL document CHEMBL6121062, “Discovery, Optimization, and Preclinical Pharmacology of EP652, a METTL3 Inhibitor with Efficacy in Liquid and Solid Tumor Models” (J Med Chem, 2025)

What was measured:
[1] = system: Kasumi 1; assay: Antiproliferative activity against human Kasumi 1 cells assessed as inhibition of cell viability incubated for 72 hrs by ATPlite assay; assay type: functional, cell-based; conditions: Kasumi 1, 72 h
[2] = biological target: METTL3/METTL14 (Homo sapiens, UniProt Q86U44); assay: Displacement of [3H]-SAM from METTL3/METTL14 (unknown origin) using 5'biotinylated-UACACUCGAUCUGGACUAAAGGUGCUC-3' RNA as substrate preincubated for 10 mins followed by substrate/[3H]-SAM addition measured after 90 mins by SPA; assay type: protein-complex assay
Chain of METTL3/METTL14 (Q86U44 whole entry): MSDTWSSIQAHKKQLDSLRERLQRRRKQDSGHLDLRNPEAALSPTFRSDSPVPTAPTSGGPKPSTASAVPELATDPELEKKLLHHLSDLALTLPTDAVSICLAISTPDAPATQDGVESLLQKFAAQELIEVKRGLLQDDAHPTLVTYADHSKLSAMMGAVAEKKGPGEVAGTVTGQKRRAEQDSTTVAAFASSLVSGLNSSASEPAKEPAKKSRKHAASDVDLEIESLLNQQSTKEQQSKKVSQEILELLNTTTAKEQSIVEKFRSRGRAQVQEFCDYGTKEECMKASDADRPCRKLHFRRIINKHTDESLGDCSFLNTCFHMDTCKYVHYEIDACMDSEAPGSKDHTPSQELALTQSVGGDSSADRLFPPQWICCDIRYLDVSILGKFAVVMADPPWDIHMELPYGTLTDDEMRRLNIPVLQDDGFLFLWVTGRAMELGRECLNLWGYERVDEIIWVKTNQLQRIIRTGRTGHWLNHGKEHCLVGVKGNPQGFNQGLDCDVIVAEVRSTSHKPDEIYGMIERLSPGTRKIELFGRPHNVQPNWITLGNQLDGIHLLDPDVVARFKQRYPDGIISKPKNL
Chain of METTL3/METTL14 (Q9HCE5 whole entry, further chain): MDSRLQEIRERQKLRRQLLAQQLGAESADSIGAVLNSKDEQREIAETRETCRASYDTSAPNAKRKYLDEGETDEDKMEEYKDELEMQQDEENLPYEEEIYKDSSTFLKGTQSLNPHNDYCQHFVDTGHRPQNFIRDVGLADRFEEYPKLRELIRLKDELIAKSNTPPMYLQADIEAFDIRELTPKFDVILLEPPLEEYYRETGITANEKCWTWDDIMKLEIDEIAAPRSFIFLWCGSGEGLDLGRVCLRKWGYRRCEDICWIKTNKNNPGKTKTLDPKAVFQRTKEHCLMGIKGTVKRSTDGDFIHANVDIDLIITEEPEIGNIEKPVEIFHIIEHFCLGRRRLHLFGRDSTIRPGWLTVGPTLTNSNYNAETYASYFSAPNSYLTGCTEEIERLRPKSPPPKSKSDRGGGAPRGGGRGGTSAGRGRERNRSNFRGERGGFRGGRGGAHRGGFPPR

[3] = Lipophilicity, logD of compound in 1-octanol/PBS at pH 7.4 incubated for 24 hrs by HPLC analysis; assay type: physicochemical
[4] = Unbound AUC in Sprague-Dawley rat at 1 mg/kg/day, iv measured for 24 hrs by LC-MS/MS analysis; assay type: ADME, organism-based; conditions: in vivo
[5] = Unbound clearance in Sprague-Dawley rat at 1 mg/kg/day, iv measured for 24 hrs by LC-MS/MS analysis; assay type: ADME, organism-based; conditions: in vivo

Row | IC50 [2] | logD at 24 h [3] | fAUC [4] | CL free [5] | SMILES | IC50 [1]
1 | > 30000 nM | 1.15 |  |  | COc1cncc(-c2cn(Cc3ccc(N4CCCC(NCC5CCC5)C4=O)nn3)nn2)c1 (configuration not stated) | > 30000 nM
2 | 3 nM | 1.93 | 1.3 µM·min | 1487 mL/min/kg | CC(n1cc(-c2cncc(N3CCCC3)c2)nn1)n1ccc(N2CCC[C@@H](NCC3CC3)C2)cc1=O (some centres not stated) | 11 nM
3 | 7 nM | 1.46 |  |  | COc1cncc(-c2cn(Cc3ccc(N4CCC[C@@H](NCC5CCC5)C4)nc3)nn2)c1 | 1200 nM
4 | 4 nM | 3.06 |  |  | COc1cc(-c2cn(Cc3ccc(N4CCC[C@@H](NC5CC56CCC6)C4)nn3)nn2)c2cn[nH]c2c1 (some centres not stated) | 1100 nM
5 | 1 nM | 1.17 | 5.2 µM·min | 369 mL/min/kg | CC(n1cc(-c2cncc(N(C)C)n2)nn1)n1ccc(N2CCC[C@@H](NCC3CC3)C2)cc1=O (some centres not stated) | 96 nM
6 | 235 nM | 1.95 |  |  | COc1cc(-c2cn(Cc3ccc(N4CCC(NCC5CCC5)C4)nn3)nn2)c2cn[nH]c2c1 (configuration not stated) | 15300 nM
7 | 243 nM | 1.01 |  |  | COc1cc(-c2cn(Cc3ccc(N4CCC[C@@H](N)C4)nn3)nn2)c2cn[nH]c2c1 | > 30000 nM
8 | > 30000 nM | 1.69 |  |  | COc1ccc(-c2cn(C(C)n3ccc(N4CCC[C@@H](NCC5CCC5)C4)cc3=O)nn2)cn1 (some centres not stated) | > 30000 nM
9 | 13 nM | 1.52 |  |  | COc1cncc(-c2nnn(C(C)n3ccc(N4CCC[C@@H](NCC5CCC5)C4)cc3=O)n2)c1 (some centres not stated) | 5500 nM
10 | 215 nM | 1.55 |  |  | COc1cncc(-c2cn(Cc3ccc(C4CCCC(NCC5CCC5)C4)nn3)nn2)c1 (configuration not stated) | > 30000 nM
11 | 6 nM | 2.04 |  |  | COc1cncc(-c2cn(Cc3ccc(N4CCC[C@@H](NCC5CCC5)C4)cc3)nn2)c1 | 875 nM
12 | 50 nM | 1.18 |  |  | COc1cncc(-c2cn(Cc3ccc(N4CCCCC(NCC5CCC5)C4)nn3)nn2)c1 (configuration not stated) | > 30000 nM
13 | 5 nM | 1.71 |  |  | COc1cc(-c2cn(Cc3ccc(N4CCC[C@@H](NC5CCC5)C4)nn3)nn2)c2cn[nH]c2c1 | 2740 nM
14 | 563 nM | 1.64 |  |  | COc1cc(-c2cn(Cc3ccc(N4CCC(NCC5CCC5)CC4)nn3)nn2)c2cn[nH]c2c1 | > 30000 nM

The remaining lines, values behind:

Row | SMILES | IC50 [2] | logD at 24 h [3] | fAUC [4] | CL free [5] | IC50 [1]
15 | CC(n1cc(-c2cccnc2)nn1)n1ccc(N2CCC[C@@H](NCC3CCC3)C2)cc1=O (some centres not stated) | 39 nM | 0.87 |  |  | 8120 nM
16 | COc1cc(-c2cn(Cc3ccc(N4CCC[C@@H](N(C)CC5CCC5)C4)nn3)nn2)c2cn[nH]c2c1 |  | 2.59 |  |  | 3130 nM
17 | COc1cncc(-c2cnn(C(C)n3ccc(N4CCC[C@@H](NCC5CCC5)C4)cc3=O)n2)c1 (some centres not stated) | > 30000 nM | 1.84 |  |  | > 30000 nM
18 | COc1cncc(-c2cn(C(C)n3ccc(N4CCC[C@@H](NCC5CCC5)C4)cc3=O)nn2)n1 (some centres not stated) | 3 nM | 1.65 | 6.1 µM·min | 413 mL/min/kg | 656 nM
19 | C[C@@H](n1cc(-c2cncc(N3CCCC3)n2)nn1)n1ccc(N2CCC[C@@H](NCC3CC3)C2)cc1=O | 1 nM | 1.6 | 4.7 µM·min | 443 mL/min/kg | 13 nM
20 | CC(n1cc(-c2cncc(N(C)C)n2)nn1)n1ccc(N2CCC[C@@H](NCC3CCC3)C2)cc1=O (some centres not stated) | 1 nM | 1.69 | 4.7 µM·min | 449 mL/min/kg | 35 nM
21 | COc1cncc(-n2cc(C(C)n3ccc(N4CCC[C@@H](NCC5CCC5)C4)cc3=O)nn2)c1 (some centres not stated) | 7 nM | 1.12 |  |  | 1930 nM
22 | COc1cncc(-c2cn(Cc3ccc(N4CC5(CCC5NCC5CCC5)C4)nn3)nn2)c1 (configuration not stated) | 2300 nM | 1.54 |  |  | > 30000 nM
23 | COc1cncc(-c2cn(Cc3ccc(N4CC5(CCCC5NCC5CCC5)C4)nn3)nn2)c1 (configuration not stated) | 205 nM | 1.85 |  |  | > 30000 nM
24 | COc1cncc(-c2cn(C3(c4ccc(N5CCC[C@@H](NCC6CCC6)C5)nn4)CC3)nn2)c1 | 25 nM | 1.7 |  |  | 9880 nM
25 | COc1cncc(-c2cc(C(C)n3ccc(N4CCC[C@@H](NCC5CCC5)C4)cc3=O)sn2)c1 (some centres not stated) | 11 nM | 2.26 |  |  | 1720 nM
26 | COc1cc(-c2cn(Cc3ccc(N4CCC[C@@H](NC(C)C5CCC5)C4)nn3)nn2)c2cn[nH]c2c1 (some centres not stated) |  | 2.14 |  |  | 10100 nM
27 | COc1cncc(-n2cnc(C(C)n3ccc(N4CCC[C@@H](NCC5CCC5)C4)cc3=O)c2)c1 (some centres not stated) | > 30000 nM | 1.25 |  |  | > 30000 nM
28 | COc1cncc(-c2cn(Cc3ccc(N4CCC[C@@H](CNC5CCC5)C4)nn3)nn2)c1 | 124 nM | 0.88 |  |  | > 30000 nM
29 | COc1cncc(-c2ncn(C(C)n3ccc(N4CCC[C@@H](NCC5CCC5)C4)cc3=O)n2)c1 (some centres not stated) | 5 nM | 1.37 |  |  | 1610 nM
30 | COc1cc(-c2cn(Cc3ccc(N4CCC[C@H](NCC5CCC5)C4)nn3)nn2)c2cn[nH]c2c1 | 24 nM | 1.89 |  |  | 3400 nM

Row | SMILES | IC50 [2] | logD at 24 h [3] | fAUC [4] | CL free [5] | IC50 [1]
31 | COc1cc(-c2cn(Cc3ccc(N4CCC[C@@H](NCC(C)C)C4)nn3)nn2)c2cn[nH]c2c1 | 3 nM | 1.92 |  |  | 1760 nM
32 | COc1cncc(-c2cn(C(c3ccc(N4CCC[C@@H](NCC5CCC5)C4)nn3)C(F)(F)F)nn2)c1 (some centres not stated) | 12 nM | 2.43 |  |  | 12200 nM
33 | COc1cccc(-c2cn(C(C)n3ccc(N4CCC[C@@H](NCC5CCC5)C4)cc3=O)nn2)c1 (some centres not stated) |  | 2.22 |  |  | > 30000 nM
34 | COc1cnnc(-c2cn(C(C)n3ccc(N4CCC[C@@H](NCC5CCC5)C4)cc3=O)nn2)c1 (some centres not stated) | 5 nM | 0.62 |  |  | 5420 nM
35 | COc1cncc(-c2cc(C(C)n3ccc(N4CCC[C@@H](NCC5CCC5)C4)cc3=O)on2)c1 (some centres not stated) | 7 nM | 1.63 |  |  | 1840 nM
36 | COc1cncc(-c2cn(Cn3ncc(N4CCC[C@@H](NCC5CCC5)C4)cc3=O)nn2)c1 | 26 nM | 1.06 |  |  | 11800 nM
37 | COc1cncc(-c2nnc(C(C)n3ccc(N4CCC[C@@H](NCC5CCC5)C4)cc3=O)s2)c1 (some centres not stated) | 3 nM | 1.45 |  | 480 mL/min/kg | 506 nM
38 | COc1cc(-c2cn(Cc3ccc(N4CCC[C@@H](NC(=O)C5CCC5)C4)nn3)nn2)c2cn[nH]c2c1 |  | 2.61 |  |  | > 30000 nM
39 | CC(n1cc(-c2cncc(N(C)C)c2)nn1)n1ccc(N2CCC[C@@H](NCC3CCC3)C2)cc1=O (some centres not stated) |  | 1.79 | 2.2 µM·min | 803 mL/min/kg | 44 nM
40 | COc1cncc(-n2cc(C(C)n3ccc(N4CCC[C@@H](NCC5CCC5)C4)cc3=O)cn2)c1 (some centres not stated) | 1 nM | 1.6 |  | 608 mL/min/kg | 306 nM
41 | COc1cc(-c2cn(Cc3ccc(N4CCC[C@@H](NC5CCCC5)C4)nn3)nn2)c2cn[nH]c2c1 |  | 1.88 |  |  | 3430 nM
42 | CC(n1cc(-c2cccn3cncc23)nn1)n1ccc(N2CCC[C@@H](NCC3CCC3)C2)cc1=O (some centres not stated) | 8 nM | 1.53 |  |  | 5400 nM
43 | COc1cc(-c2cn(Cc3ccc(N4CCC[C@@H](NCC5CC5)C4)nn3)nn2)c2cn[nH]c2c1 | 2 nM | 1.63 |  |  | 1050 nM
44 | CC(n1cc(-c2cncc(C#N)c2)nn1)n1ccc(N2CCC[C@@H](NCC3CCC3)C2)cc1=O (some centres not stated) |  | 0.97 |  |  | > 30000 nM
45 | COc1cncc(-c2cn(C(C)n3ccc(N4CCC[C@@H](NCC5CCC5)C4)cc3=O)cn2)c1 (some centres not stated) |  | 1.52 |  | 487 mL/min/kg | 453 nM
